Measurements published in patent US20210308034A1, “PREBIOTIC COMPOSITIONS AND METHODS FOR MAINTAINING A HEALTHY SKIN MICROBIOTA” (KIMBERLY-CLARK WORLDWIDE, INC., priority 2018, published 2021).

What was measured:
Assay type in all cases: cell-based
[1] = test system: Klebsiella pneumoniae (ATCC BAA-2146); conditions: Pathogenic; carbon microarray plate, OD 600 nm, 36 hr, 33° C.; positive = more than 0.05 OD units above zero; blank cell = not utilized
[2] = test system: Pseudomonas aeruginosa (ATCC 9027); conditions: Pathogenic; carbon microarray plate, OD 600 nm, 36 hr, 33° C.; positive = more than 0.05 OD units above zero; blank cell = not utilized
Outline: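 Carbon-source utilisation screen on Biolog PM1/PM2 plates: strain grown in TSB then on M9*2 agar, each ~24 h at 37 °C, washed four times in M9*1 and diluted tenfold. OD600 correlated to CFU/mL; each carbohydrate scored Yes when utilised.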

[3] = test system: Staphylococcus epidermidis (ATCC 14990); assay: Carbohydrate Screening Test Method (Biolog phenotype microarray), Bacteria Code I; conditions: Commensal; carbon microarray plate, OD 600 nm, 36 hr, 33° C.; positive = more than 0.05 OD units above zero; blank cell = not utilized
Text: (§1) After creating desired ratios of various commensal skin bacteria in a healthy skin microbiome, 188 different carbohydrate sources were screened as the next step in determining potential prospects for skin microbiota balancing agents. The screening process was set up to determine which carbohydrate sources promoted commensal and/or pathogenic bacteria as well as to obtain individual and combinations of carbohydrate sources that could serve as microbiota balancing agents that can support or maintain the healthy proportions of commensal skin bacteria of Corynebacterium, Staphylococcus, and Micrococcus. The screening was conducted utilizing Biolog phenotype microarray plates (Hayward, Calif.). Table 1 provides a coded list of the commensal and pathogenic skin bacteria that the carbohydrates were screened against.
(§2) Table 2 provides the results of screening various carbohydrate sources against the commensal and pathogenic bacteria codes listed in Table 1. The Bacteria Codes B, D, E, I, and J are commensal bacteria and are shaded in Table 2 for references purposes. The bacteria codes were each placed in a carbon microarray plate and screened through the Carbohydrate Screening Test Method, as described in the Test Methods section herein. If a particular bacteria code utilized a specific carbohydrate source as described in the Carbohydrate Screening Test Method, then the corresponding cell in Table 2 was marked with a Y (short for “Yes”). […] Many of the carbohydrate sources were utilized by both commensal and pathogenic bacteria, and as such, would not provide an advantage for selective growth of the commensal bacteria. However, some of the carbohydrate sources were only used by commensal bacteria and were identified for further testing as described herein.
(§3) The study employed 10 representative skin bacteria; Staphylococcus epidermidis ATCC 14990, Staphylococcus epidermidis M23864:W2, Staphylococcus aureus ATCC 6538, Staphylococcus aureus ATCC 25904 (Newman), Pseudomonas aeruginosa ATCC 9027, Micrococcus luteus ATCC […], Micrococcus luteus SK58, Klebsiella pneumoniae ATCC BAA-2146, Corynebacterium amycolatum SK46, and Corynebacterium minutissimum ATCC 23348. Cultures were started from freezer bead stocks by placing a single bead into 20 mL of tryptic soy broth (TSB) for all organisms except C. amycolatum SK46 and C. minutissimum ATCC 23348, which were placed into brain heart infusion (BHI) broth. Cultures were grown for about 24 hr at 37° C. except M. luteus ATCC 49732 and M. luteus SK58, which were grown at 30° C. A passage of the culture was made using a sterile swab and streaked onto two M9*2 agar plates to prepare the incubated culture for the phenotype microarray pate according to Table 4. Plates were incubated for about 24 hr at 37° C. except for M. luteus ATCC 49732 and M. luteus SK58, which were incubated at 30° C. for 24 hr.
(§4) All cultures were harvested and washed before inoculation into the carbon microarray plate (BiOLOG, Hayward Calif.), with Biolog Plates PM1 and PM2 each having a source definition of Carbon. The bacteria on the M9*2 agar was suspended via agitation with an inoculating loop in 1 mL of M9*1 media for collection in a 1.7 mL micro centrifuge tube, as noted in Table 4. The bacteria was suspended again in M9*1 media, agitated, and collected into the same 1.7 mL microcentrifuge tube used in the previous step. The tube was centrifuged for 5 minutes at 4,000×G, supernatant decanted, the pellet was resuspended in 1 mL of M9*1 media, and vortex. This washing process was repeated for a total of 4 times.
(§5) A tenfold dilution in M9*1 media was performed using 1 mL of the washed bacterial culture. Of the tenfold dilution 200 μL was placed in an untreated 96-well plate (Falcon, Pasadena Tx.) for an initial optical density (OD) reading at a wavelength of 600 nm. The OD was used to correlate to colony forming units (CFU) per milliliter by using linear regression lines for each organism. […]

[4] = test system: Staphylococcus epidermidis (M23864:W2); assay: Carbohydrate Screening Test Method (Biolog phenotype microarray), Bacteria Code J; conditions: Commensal; carbon microarray plate, OD 600 nm, 36 hr, 33° C.; positive = more than 0.05 OD units above zero; blank cell = not utilized
Text: as §1
The Bacteria Codes B, D, E, I, and J are commensal bacteria and are shaded in Table 2 for references purposes. The bacteria codes were each placed in a carbon microarray plate and screened through the Carbohydrate Screening Test Method, as described in the Test Methods section herein. If a particular bacteria code utilized a specific carbohydrate source as described in the Carbohydrate Screening Test Method, then the corresponding cell in Table 2 was marked with a Y (short for “Yes”).
To do so, the respective microarray data for the 79 carbohydrate sources was run through the GrowthRates 2.1 program to obtain growth parameters, such as growth rates and maximum yield data as described by the Belingham Research Institute, Hall, B. G., H. Acar and M. Barlow. 2014 Growth Rates Made Easy. Mol. Biol. Evol. 31:232-238 doi:10.1093/molbev/mst197. The max yield parameters generated were utilized to calculate ratios of tested commensal bacteria. The ratios calculated were compared back to the desired ratios identified above (Corynebacterium to Staphylococcus of 1.3, Corynebacterium to Micrococcus of 1.4, and Staphylococcus to Micrococcus of 1.1).
As an example of this methodology used to calculate the commensal bacteria ratios and the difference between the calculated ratios and the desired ratios, an example code from Table 3 will be described. […] The max yields were then used to calculate ratios the bacteria would reach in a co-culture.

[5] = test system: Micrococcus luteus (ATCC 49732); assay: Carbohydrate Screening Test Method (Biolog phenotype microarray), Bacteria Code D; conditions: Commensal; carbon microarray plate, OD 600 nm, 36 hr, 33° C.; positive = more than 0.05 OD units above zero; blank cell = not utilized
Text: as §1, §2, §3, §4, §5

[6] = test system: Corynebacterium minutissimum (ATCC 23348); assay: Carbohydrate Screening Test Method (Biolog phenotype microarray), Bacteria Code A; conditions: Pathogenic; carbon microarray plate, OD 600 nm, 36 hr, 33° C.; positive = more than 0.05 OD units above zero; blank cell = not utilized
Text: as §1, §2, §3, §4, §5

[7] = test system: Corynebacterium jeikum (ATCC 33033); assay: Carbohydrate Screening Test Method (Biolog phenotype microarray), Bacteria Code B; conditions: Commensal; carbon microarray plate, OD 600 nm, 36 hr, 33° C.; positive = more than 0.05 OD units above zero; blank cell = not utilized
Outline: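 Strain from M9*2 agar was suspended in M9*1 medium, washed and inoculated into Biolog PM1/PM2 carbon plates. Carbohydrate use was scored yes/no, and growth rate and maximum yield were derived with GrowthRates 2.1, with max yields used for commensal ratios.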

[8] = test system: Micrococcus luteus (SK58); assay: Carbohydrate Screening Test Method (Biolog phenotype microarray), Bacteria Code E; conditions: Commensal; carbon microarray plate, OD 600 nm, 36 hr, 33° C.; positive = more than 0.05 OD units above zero; blank cell = not utilized
Outline: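 Each commensal strain grown in Biolog carbon phenotype microarray plates with single carbohydrate sources. Growth curves fitted with GrowthRates 2.1 to give growth rate and maximum yield. Max yields used to calculate predicted co-culture ratios between Corynebacterium, Staphylococcus and Micrococcus, compared with desired ratios of 1.3, 1.4 and 1.1.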

OC[C@H]1O[C@H](OC[C@H]2OC(O)(CO)[C@@H](O)[C@@H]2O)[C@H](O)[C@@H](O)[C@@H]1O (stereo partly drawn) [Palatinose]
Carbohydrate Screening Results, Bacteria Code C [1]: Y | Carbohydrate Screening Results, Bacteria Code F [2]: Y | Carbohydrate Screening Results, Bacteria Code I [3]: Y | Carbohydrate Screening Results, Bacteria Code J [4]: Y

C[C@H](N)C(N)=O [L-Alaninamide]
Carbohydrate Screening Results, Bacteria Code D [5]: Y | Carbohydrate Screening Results, Bacteria Code J [4]: Y

NC(=O)CCC(=O)O [Succinamic Acid]
Carbohydrate Screening Results, Bacteria Code D [5]: Y | Carbohydrate Screening Results, Bacteria Code I [3]: Y

O=C[C@@H](O)[C@H](O)[C@H](O)CO [D-Arabinose]
Carbohydrate Screening Results, Bacteria Code D [5]: Y

CC(C)C[C@H](N)C(=O)O [L-Leucine]
Carbohydrate Screening Results, Bacteria Code D [5]: Y

O=C(O)CCC(=O)O [Succinic Acid]
Carbohydrate Screening Results, Bacteria Code A [6]: Y

OC[C@H]1O[C@@H]2O[C@H]3[C@H](O)[C@@H](O)[C@@H](O[C@H]4[C@H](O)[C@@H](O)[C@@H](O[C@H]5[C@H](O)[C@@H](O)[C@@H](O[C@H]6[C@H](O)[C@@H](O)[C@@H](O[C@H]7[C@H](O)[C@@H](O)[C@@H](O[C@H]8[C@H](O)[C@@H](O)[C@@H](O[C@H]1[C@H](O)[C@H]2O)O[C@@H]8CO)O[C@@H]7CO)O[C@@H]6CO)O[C@@H]5CO)O[C@@H]4CO)O[C@@H]3CO [β-Cyclodextrin]
Carbohydrate Screening Results, Bacteria Code D [5]: Y | Carbohydrate Screening Results, Bacteria Code I [3]: Y | Carbohydrate Screening Results, Bacteria Code J [4]: Y

COC1OC(CO)C(O)C(O)C1O [α-Methyl-D-Mannoside]
Carbohydrate Screening Results, Bacteria Code D [5]: Y

O=C(O)C(=O)C(C(=O)O)C(O)C(=O)O (stereo not drawn) [Oxalomalic Acid]
Carbohydrate Screening Results, Bacteria Code D [5]: Y | Carbohydrate Screening Results, Bacteria Code J [4]: Y

C/C(=C/C(=O)O)C(=O)O [Citraconic Acid]
Carbohydrate Screening Results, Bacteria Code D [5]: Y | Carbohydrate Screening Results, Bacteria Code I [3]: Y | Carbohydrate Screening Results, Bacteria Code J [4]: Y

N#C[C@H](O[C@@H]1O[C@H](CO[C@@H]2O[C@H](CO)[C@@H](O)[C@H](O)[C@H]2O)[C@@H](O)[C@H](O)[C@H]1O)c1ccccc1 [Amygdalin]
Carbohydrate Screening Results, Bacteria Code D [5]: Y | Carbohydrate Screening Results, Bacteria Code J [4]: Y

CSCC[C@H](N)C(=O)O [L-Methionine]
Carbohydrate Screening Results, Bacteria Code A [6]: Y

O=C(O)c1ccc(O)cc1 [4-Hydroxy Benzoic Acid]
Carbohydrate Screening Results, Bacteria Code D [5]: Y

N=C(N)NCCC[C@H](N)C(=O)O [L-Arginine]
Carbohydrate Screening Results, Bacteria Code D [5]: Y | Carbohydrate Screening Results, Bacteria Code F [2]: Y

OC[C@H]1O[C@H](OC[C@H]2O[C@H](OC[C@H]3O[C@H](O[C@]4(CO)O[C@H](CO)[C@@H](O)[C@@H]4O)[C@H](O)[C@@H](O)[C@@H]3O)[C@H](O)[C@@H](O)[C@H]2O)[C@H](O)[C@@H](O)[C@H]1O [Stachyose]
Carbohydrate Screening Results, Bacteria Code C [1]: Y | Carbohydrate Screening Results, Bacteria Code D [5]: Y | Carbohydrate Screening Results, Bacteria Code F [2]: Y

O=c1ccn([C@@H]2O[C@H](CO)[C@@H](O)[C@H]2O)c(=O)[nH]1 [Uridine]
Carbohydrate Screening Results, Bacteria Code B [7]: Y | Carbohydrate Screening Results, Bacteria Code C [1]: Y | Carbohydrate Screening Results, Bacteria Code D [5]: Y

OCc1ccccc1O[C@@H]1O[C@H](CO)[C@@H](O)[C@H](O)[C@H]1O [Salicin]
Carbohydrate Screening Results, Bacteria Code C [1]: Y | Carbohydrate Screening Results, Bacteria Code D [5]: Y | Carbohydrate Screening Results, Bacteria Code F [2]: Y

CC(=O)N[C@@H](CCC(=O)O)C(=O)O [N-Acetyl-L-Glutamic Acid]
Carbohydrate Screening Results, Bacteria Code D [5]: Y | Carbohydrate Screening Results, Bacteria Code F [2]: Y

O=C(O)[C@@H](O)[C@@H](O)[C@H](O)[C@@H](O)C(=O)O [D-Saccharic Acid]
Carbohydrate Screening Results, Bacteria Code A [6]: Y

CC(N)=O [Acetamide]
Carbohydrate Screening Results, Bacteria Code A [6]: Y

O=C[C@H](O)[C@@H](O)[C@@H](O)[C@H](O)C(=O)O [D-Galacturonic Acid]
Carbohydrate Screening Results, Bacteria Code B [7]: Y | Carbohydrate Screening Results, Bacteria Code D [5]: Y | Carbohydrate Screening Results, Bacteria Code E [8]: Y

CC(=O)N[C@H]1C(O)O[C@H](CO)[C@@H](O)[C@@H]1O (stereo partly drawn) [N-Acetyl-D-Glucosamine]
Carbohydrate Screening Results, Bacteria Code A [6]: Y | Carbohydrate Screening Results, Bacteria Code B [7]: Y | Carbohydrate Screening Results, Bacteria Code E [8]: Y

NCCO [2-Aminoethanol]
Carbohydrate Screening Results, Bacteria Code B [7]: Y | Carbohydrate Screening Results, Bacteria Code D [5]: Y | Carbohydrate Screening Results, Bacteria Code E [8]: Y

OC[C@H]1O[C@@](CO)(O[C@H]2O[C@H](CO)[C@@H](O)[C@H](O)[C@H]2O)[C@@H](O[C@H]2O[C@H](CO)[C@@H](O)[C@H](O)[C@H]2O)[C@@H]1O [D-Melezitose]
Carbohydrate Screening Results, Bacteria Code D [5]: Y | Carbohydrate Screening Results, Bacteria Code I [3]: Y

O=C1O[C@H](CO)[C@@H](O)[C@H]1O [D-Ribono-1,4-Lactone]
Carbohydrate Screening Results, Bacteria Code D [5]: Y

O=C(O)CC(=O)O [Malonic Acid]
Carbohydrate Screening Results, Bacteria Code C [1]: Y | Carbohydrate Screening Results, Bacteria Code D [5]: Y | Carbohydrate Screening Results, Bacteria Code F [2]: Y

Chondroitin Sulfate C
Carbohydrate Screening Results, Bacteria Code D [5]: Y

CC(=O)C(=O)O [Pyruvic Acid]
Carbohydrate Screening Results, Bacteria Code B [7]: Y | Carbohydrate Screening Results, Bacteria Code D [5]: Y | Carbohydrate Screening Results, Bacteria Code F [2]: Y | Carbohydrate Screening Results, Bacteria Code I [3]: Y | Carbohydrate Screening Results, Bacteria Code J [4]: Y

O=C(CO)[C@@H](O)[C@H](O)[C@@H](O)CO [L-Sorbose]
Carbohydrate Screening Results, Bacteria Code C [1]: Y | Carbohydrate Screening Results, Bacteria Code D [5]: Y | Carbohydrate Screening Results, Bacteria Code F [2]: Y

CC(=O)N[C@H]1C(O)O[C@H](CO)[C@H](O)[C@@H]1O (stereo partly drawn) [N-Acetyl-D-Galactosamine]
Carbohydrate Screening Results, Bacteria Code D [5]: Y

Gelatin
Carbohydrate Screening Results, Bacteria Code D [5]: Y | Carbohydrate Screening Results, Bacteria Code J [4]: Y
